The results in this text go back to patent US20100016590A1, “NILOTINIB INTERMEDIATES AND PREPARATION THEREOF” (TEVA PHARMACEUTICAL INDUSTRIES LTD., priority 2008, published 2010).

The nature of the data set: Humidifying Nilotinib.3HCl: water content measured at regular intervals in a closed glass container with saturated potassium chloride solution. Type of data set: physicochemical. Particulars: for water content (M/C) After 72 Hrs: after 72 Hrs in closed container over saturated potassium chloride solution; for water content (M/C) After 72 Hrs / water content (M/C) After 96 Hrs / M/C Initial (water content): tri hydrochloride; for water content (M/C) After 96 Hrs: after 96 Hrs in closed container over saturated potassium chloride solution; for M/C Initial (water content): before humidifying.

Where a name gives a salt, the structure may show the parent alone.

Experimental: Weight 4.0 gms (having HPLC purity is 90%) Crude Nilotinib Tri hydrochloride in dry Petri dish and placed in to closed glass container containing (saturated Potassium chloride solution) at 20 to 25 temperature, the water content of crude Nilotinib was measured by regular interval.
Weight 4.0 gms (having HPLC purity is 97.91%) Pure Nilotinib Tri hydrochloride in dry Petri dish and placed in to closed glass container containing (saturated Potassium chloride solution) at 20 to 25 temperature, the water content of Pure Nilotinib was measured by regular interval.

For the compound `Cc1cn(-c2cc(NC(=O)c3ccc(C)c(Nc4nccc(-c5cccnc5)n4)c3)cc(C(F)(F)F)c2)cn1` [Nilotinib.3HCl (Pure), 3-(4-(pyridin-3-yl)pyrimidin-2-ylamino)-N-(3-(trifluoromethyl)-5-(4-methyl-1H-imidazol-1-yl)phenyl)-4-methylbenzamide tri hydrochloride], the “M/C Initial (water content)” value was 4.55%. Also, for the setting “20 to 25 temperature”, the “water content (M/C) After 72 Hrs” value is recorded as 14.90% and the “water content (M/C) After 96 Hrs” value is given as 14.41%.
As to `Cc1cn(-c2cc(NC(=O)c3ccc(C)c(Nc4nccc(-c5cccnc5)n4)c3)cc(C(F)(F)F)c2)cn1` [Nilotinib.3HCl (crude), 3-(4-(pyridin-3-yl)pyrimidin-2-ylamino)-N-(3-(trifluoromethyl)-5-(4-methyl-1H-imidazol-1-yl)phenyl)-4-methylbenzamide tri hydrochloride], the “M/C Initial (water content)” value was found to be 4.31%. Also, the “water content (M/C) After 24 Hrs” value (after 24 Hrs in closed container over saturated potassium chloride solution, 20 to 25 temperature) came out at 16.33%. Further, the “water content (M/C) After 48 Hrs” value (after 48 Hrs in closed container over saturated potassium chloride solution, 20 to 25 temperature) turned out to be 16.89%. For the same compound, for the setting “20 to 25 temperature”, the “water content (M/C) After 72 Hrs” value was 16.40% and the “water content (M/C) After 96 Hrs” value worked out at 16.36%. In addition, where the note is “after 120 Hrs in closed container over saturated potassium chloride solution, 20 to 25 temperature”, the “water content (M/C) After 120 Hrs” value was 16.53%.
